Patent US9988371B2, “Benzimidazole analogues and related methods” (The Arizona Board of Regents, on Behalf of the University …, priority 2014, dated 2018)

Experiments:
RET/C634W = target: T1, RET/C634W (Homo sapiens, UniProt P07949, C634W); assay: RET auto-phosphorylation immunoblot in TT cells; format: cell-based; conditions: 1 nM
T1 construct: RET protein endogenously expressed in TT cells; endogenous in cells; host or cells: TT (human medullary thyroid carcinoma)
Method: FIG. 3: Photographs of blots showing inhibition of RET protein endogenously expressed in TT cells (human MTC cell line expressing RET/C634W) by indicated concentrations of Pz-1 or vehicle (NT: not treated) and reduced effects in thyroid non-transformed Nthy-ori-3-1 cells. Serum-starved human TT and thyroid non-transformed Nthy-ori-3-1 cell lines were treated for 2 hr with indicated concentrations of Pz-1. 50 μg of total cell lysates were subjected to immunoblotting with anti-phospho-Y1062 (αp1062) and anti-phospho-905 (αpY905) RET antibodies, anti-phospho-MAPK (αpMAPK, T302/Y304), and anti-phospho-SHC (αpSHC, Y317) antibodies. The blots were normalized using anti-RET (αRET) and anti-SHC (αSHC).
The inhibition of RET auto-phosphorylation by Pz-1 was measured in several different cell lines including NIH3T3 fibroblasts expressing RET/C634Y or RET/M918T, TT expressing RET/C634W (MTC), Nthy-ory-3-1 (thyroid, non-transformed with RET; negative control), HEK293/RET/PTC1 (CCDC6-RET that can be found in PTC & lung cancer), HEK293/RET-KIF5B (that can be found in lung cancer), HEK293/RET/PTC3 (NCOA4-RET, that can be found in PTC & lung cancer), and HEK293 transfected with RET/C634R-V804M (FIGS. 1-3). […]
Protein lysates were prepared according to standard procedures. […] Immune complexes were detected with the enhanced chemiluminescence kit (Amersham Pharmacia Biotech, Little Chalfort, UK). […]

[1] = system: parental NIH3T3 fibroblasts; assay: Growth of parental NIH3T3 fibroblasts; format: cell-based; conditions: up to 1000 nM, 3 days
VEGFR2 = target: T2, VEGFR2 (Mus musculus, UniProt P35918); assay: In vivo target inhibition, pVEGFR2 in RET/C634Y-induced tumors; parameters: species or system nude mice; conditions: 48 hr, 1.0 or 3.0 mg/kg daily
T2 construct: from tissue; host or cells: subcutaneous tumours (NIH3T3 RET/C634Y or NIH3T3 HRAS/G12V) in BALB/c nu/nu mice
Method: FIG. 9: Photographs of blots showing effects of Pz-1 on cellular phosphorylation events in tumors induced in nude mice (from FIG. 8) by injection of NIH3T3 fibroblasts transformed by RET/C634Y or HRAS/G12V. […] Some of the vehicle-treated tumors, at the end of the tumor growth experiment described in FIG. 8, were treated for 48 hr with different doses of Pz-1 (TR) or left untreated (NT). At the end of the treatment, 50 μg of tumor protein lysates were subjected to immunoblotting with anti-phospho-Y1062 (αp1062) and anti-phospho-905 (αpY905) RET antibodies, anti-phospho-MAPK (αpMAPK, T302/Y304), anti-phospho-SHC (αpSHC, Y317), anti-phospho-p70S6K (αpp70S6K, T389), anti-phospho-S6RP (αpS6RP, S235/S236), and anti-phospho-VEGFR2 (αpVEGFR2 pY1175) antibodies. The blots were normalized using anti-RET (αRET), anti-SHC (αSHC), anti-MAPK (αMAPK), anti-p70S6K (αp70S6K), anti-S6RP (αS6RP) or anti-VEGFR2 (αVEGFR2) antibodies.
Some of the vehicle-treated tumors, at the end of the tumor growth experiment reported in FIG. 8, were treated for 48 hr with different doses of Pz-1 (1.0 or 3.0 mg/kg daily) or left untreated. […]

T2 sequence (P35918 20-1345): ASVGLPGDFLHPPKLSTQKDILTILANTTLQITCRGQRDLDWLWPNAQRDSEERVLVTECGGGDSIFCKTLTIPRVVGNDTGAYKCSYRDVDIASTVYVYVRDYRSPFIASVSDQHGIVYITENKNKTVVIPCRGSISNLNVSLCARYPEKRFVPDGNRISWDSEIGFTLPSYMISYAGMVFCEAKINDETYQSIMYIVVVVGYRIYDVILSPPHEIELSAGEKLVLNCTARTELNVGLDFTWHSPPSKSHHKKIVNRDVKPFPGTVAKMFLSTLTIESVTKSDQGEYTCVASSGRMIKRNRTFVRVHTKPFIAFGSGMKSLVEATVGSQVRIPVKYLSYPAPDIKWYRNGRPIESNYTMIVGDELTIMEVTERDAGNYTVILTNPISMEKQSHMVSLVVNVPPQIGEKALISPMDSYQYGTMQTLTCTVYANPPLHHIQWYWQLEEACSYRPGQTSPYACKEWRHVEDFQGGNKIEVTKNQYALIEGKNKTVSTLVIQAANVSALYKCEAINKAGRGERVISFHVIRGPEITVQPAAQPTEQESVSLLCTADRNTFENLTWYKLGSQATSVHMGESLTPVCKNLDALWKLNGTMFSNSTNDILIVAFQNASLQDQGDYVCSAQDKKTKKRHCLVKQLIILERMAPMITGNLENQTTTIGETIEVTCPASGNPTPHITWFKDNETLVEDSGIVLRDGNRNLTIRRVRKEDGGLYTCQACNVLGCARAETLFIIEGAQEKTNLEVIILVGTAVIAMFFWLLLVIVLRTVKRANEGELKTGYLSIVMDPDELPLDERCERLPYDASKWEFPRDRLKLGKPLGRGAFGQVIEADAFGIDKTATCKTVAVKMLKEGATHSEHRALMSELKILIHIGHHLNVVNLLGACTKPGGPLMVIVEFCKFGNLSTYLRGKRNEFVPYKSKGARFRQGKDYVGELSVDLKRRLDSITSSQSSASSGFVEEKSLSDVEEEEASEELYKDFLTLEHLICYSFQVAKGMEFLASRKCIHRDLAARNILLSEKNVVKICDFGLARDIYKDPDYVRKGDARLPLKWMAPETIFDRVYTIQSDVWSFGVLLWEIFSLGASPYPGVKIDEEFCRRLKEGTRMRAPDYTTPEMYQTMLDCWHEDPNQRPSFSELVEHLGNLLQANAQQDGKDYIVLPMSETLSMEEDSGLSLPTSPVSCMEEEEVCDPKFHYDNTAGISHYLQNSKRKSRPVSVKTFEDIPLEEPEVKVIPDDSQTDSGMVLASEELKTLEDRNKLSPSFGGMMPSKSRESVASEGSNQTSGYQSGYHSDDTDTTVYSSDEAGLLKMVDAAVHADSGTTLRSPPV
T1 sequence (P07949 29-1114 C634W): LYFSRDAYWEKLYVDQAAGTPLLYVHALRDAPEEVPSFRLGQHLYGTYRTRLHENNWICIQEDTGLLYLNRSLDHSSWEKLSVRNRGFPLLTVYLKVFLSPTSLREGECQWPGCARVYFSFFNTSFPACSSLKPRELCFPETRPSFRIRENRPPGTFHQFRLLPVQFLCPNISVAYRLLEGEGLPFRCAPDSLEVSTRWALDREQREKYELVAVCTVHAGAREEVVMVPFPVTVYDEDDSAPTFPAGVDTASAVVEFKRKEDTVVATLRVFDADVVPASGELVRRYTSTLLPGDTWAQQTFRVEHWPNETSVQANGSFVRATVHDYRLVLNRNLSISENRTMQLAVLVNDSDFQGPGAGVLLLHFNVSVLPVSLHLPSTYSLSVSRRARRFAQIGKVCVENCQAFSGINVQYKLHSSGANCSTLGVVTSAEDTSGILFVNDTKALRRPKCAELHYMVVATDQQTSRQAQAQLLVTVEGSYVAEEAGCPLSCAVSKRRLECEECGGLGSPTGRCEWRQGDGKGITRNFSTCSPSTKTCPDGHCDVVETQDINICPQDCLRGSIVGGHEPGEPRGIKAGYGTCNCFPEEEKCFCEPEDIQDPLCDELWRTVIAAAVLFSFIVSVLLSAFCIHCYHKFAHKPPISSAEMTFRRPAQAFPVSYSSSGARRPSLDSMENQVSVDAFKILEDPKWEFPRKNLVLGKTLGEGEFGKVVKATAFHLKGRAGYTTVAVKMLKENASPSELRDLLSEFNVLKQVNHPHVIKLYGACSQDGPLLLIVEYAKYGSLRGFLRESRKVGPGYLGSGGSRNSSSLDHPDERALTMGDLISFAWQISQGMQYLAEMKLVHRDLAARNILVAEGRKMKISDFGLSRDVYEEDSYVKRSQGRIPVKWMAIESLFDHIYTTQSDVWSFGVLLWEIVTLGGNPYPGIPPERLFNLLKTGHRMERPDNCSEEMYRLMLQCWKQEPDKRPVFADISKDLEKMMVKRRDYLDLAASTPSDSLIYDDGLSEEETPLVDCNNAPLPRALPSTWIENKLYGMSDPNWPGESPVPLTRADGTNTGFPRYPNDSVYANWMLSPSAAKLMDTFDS

## Cn1cc(-c2ccc3c(c2)ncn3-c2ccc(CC(=O)Nc3cc(C(C)(C)C)on3)cc2)cn1 [Pz-1, N-(5-(tert-butyl)isoxazol-3-yl)-2-(4-(5-(1-methyl-1H-pyrazol-4-yl)-1H-benzo[d]imidazol-1-yl)phenyl)acetamide]
RET/C634W
  inhibition of pRET: strongly inhibited
[1]
  effect on growth: did not significantly reduce growth
VEGFR2
  pVEGFR2 in tumors: inhibited
